According to ChEMBL document CHEMBL5036341, “Design, synthesis and biological evaluation of aminopyrimidine derivatives bearing a 4,5,6,7-tetrahydrothieno [3,2-c]pyridine as potent EGFR inhibitors” (Eur J Med Chem, 2021):
The source made the active and inactive calls. The calls are words filed in the database; no cut-off is given here.

Key:
[1] = species: Homo sapiens; assay: Inhibition of EGFR L858R/T790M double mutant (unknown origin) measured at 1 uM by ELISA
[2] = Inhibition of EGFR L858R/T790M/C797S triple mutant (unknown origin) measured by ELISA; set-up: species or system Homo sapiens
[3] = species: Homo sapiens; assay: Inhibition of EGFR L858R/T790M double mutant (unknown origin) measured at 0.1 uM by ELISA
[4] = Inhibition of EGFR L858R/T790M double mutant (unknown origin) measured by ELISA; set-up: species or system Homo sapiens
[5] = test system: NCI-H1975; assay: Cytotoxicity against human NCI-H1975 cells assessed as reduction in cell viability measured by MTT assay; format: functional, cell-based
[6] = test system: A-431; assay: Cytotoxicity against human A-431 cells assessed as reduction in cell viability measured by MTT assay; format: functional, cell-based
[7] = test system: A549; assay: Cytotoxicity against human A549 cells assessed as reduction in cell viability measured by MTT assay; format: functional, cell-based
[8] = species: Homo sapiens; assay: Selectivity ratio of IC50 for EGFR L858R/T790M double mutant (unknown origin) to IC50 for wildtype EGFR (unknown origin) measured by ELISA
[9] = molecular target: Epidermal growth factor receptor (Homo sapiens, UniProt P00533); assay: Inhibition of wild type EGFR (unknown origin) measured by ELISA
[10] = test system: A549; assay: Induction of apoptosis in human A549 cells assessed as chromatin contraction at 25 uM measured after 24 hrs by AO/EB staining based inverted fluorescence microscopic analysis; format: functional, cell-based
[11] = test system: A549; assay: Inhibition of cell migration in human A549 cells measured after 12 to 36 hours by fluorescence microscopy based wound healing assay; format: functional; conditions: dose 1-5 µM, time 12-36 hrs
[12] = test system: A549; assay: Antiproliferative activity against human A549 cells assessed as reduction in cell growth incubated for 24 hrs by AO/EB staining based inverted fluorescence microscopic analysis; format: functional; conditions: dose 1-25 µM
[13] = test system: NCI-H1975; assay: Induction of apoptosis in human NCI-H1975 cells assessed as late apoptotic cells at 1 uM measured after 48 hrs by annexinV-FITC and propidium iodide double staining based flow cytometry analysis (reference value: 1.56 %); format: functional
[14] = test system: NCI-H1975; assay: Induction of apoptosis in human NCI-H1975 cells assessed as late apoptotic cells at 5 uM measured after 48 hrs by annexinV-FITC and propidium iodide double staining based flow cytometry analysis (reference value: 1.56 %); format: functional
[15] = test system: NCI-H1975; assay: Induction of apoptosis in human NCI-H1975 cells assessed as live cells at 1 uM measured after 48 hrs by annexinV-FITC and propidium iodide double staining based flow cytometry analysis (reference value: 94.92 %); format: functional
[16] = test system: NCI-H1975; assay: Induction of apoptosis in human NCI-H1975 cells assessed as early apoptotic cells at 1 uM measured after 48 hrs by annexinV-FITC and propidium iodide double staining based flow cytometry analysis (reference value: 3.24 %); format: functional
[17] = test system: NCI-H1975; assay: Induction of apoptosis in human NCI-H1975 cells assessed as live cells at 0.2 uM measured after 48 hrs by annexinV-FITC and propidium iodide double staining based flow cytometry analysis (reference value: 94.92 %); format: functional
[18] = test system: NCI-H1975; assay: Induction of apoptosis in human NCI-H1975 cells assessed as necrotic cells at 0.2 uM measured after 48 hrs by annexinV-FITC and propidium iodide double staining based flow cytometry analysis (reference value: 0.28 %); format: functional
[19] = test system: NCI-H1975; assay: Induction of apoptosis in human NCI-H1975 cells assessed as late apoptotic cells at 0.2 uM measured after 48 hrs by annexinV-FITC and propidium iodide double staining based flow cytometry analysis (reference value: 1.56 %); format: functional
[20] = test system: NCI-H1975; assay: Induction of apoptosis in human NCI-H1975 cells assessed as necrotic cells at 1 uM measured after 48 hrs by annexinV-FITC and propidium iodide double staining based flow cytometry analysis (reference value: 0.28 %); format: functional
[21] = test system: NCI-H1975; assay: Induction of apoptosis in human NCI-H1975 cells assessed as early apoptotic cells at 5 uM measured after 48 hrs by annexinV-FITC and propidium iodide double staining based flow cytometry analysis (reference value: 3.24 %); format: functional
[22] = test system: NCI-H1975; assay: Induction of apoptosis in human NCI-H1975 cells assessed as live cells at 5 uM measured after 48 hrs by annexinV-FITC and propidium iodide double staining based flow cytometry analysis (reference value: 94.92 %); format: functional
[23] = test system: NCI-H1975; assay: Induction of apoptosis in human NCI-H1975 cells assessed as necrotic cells at 5 uM measured after 48 hrs by annexinV-FITC and propidium iodide double staining based flow cytometry analysis (reference value: 0.28 %); format: functional
[24] = test system: NCI-H1975; assay: Induction of apoptosis in human NCI-H1975 cells assessed as early apoptotic cells at 0.2 uM measured after 48 hrs by annexinV-FITC and propidium iodide double staining based flow cytometry analysis (reference value: 3.24 %); format: functional

Chain of Epidermal growth factor receptor (P00533 whole entry): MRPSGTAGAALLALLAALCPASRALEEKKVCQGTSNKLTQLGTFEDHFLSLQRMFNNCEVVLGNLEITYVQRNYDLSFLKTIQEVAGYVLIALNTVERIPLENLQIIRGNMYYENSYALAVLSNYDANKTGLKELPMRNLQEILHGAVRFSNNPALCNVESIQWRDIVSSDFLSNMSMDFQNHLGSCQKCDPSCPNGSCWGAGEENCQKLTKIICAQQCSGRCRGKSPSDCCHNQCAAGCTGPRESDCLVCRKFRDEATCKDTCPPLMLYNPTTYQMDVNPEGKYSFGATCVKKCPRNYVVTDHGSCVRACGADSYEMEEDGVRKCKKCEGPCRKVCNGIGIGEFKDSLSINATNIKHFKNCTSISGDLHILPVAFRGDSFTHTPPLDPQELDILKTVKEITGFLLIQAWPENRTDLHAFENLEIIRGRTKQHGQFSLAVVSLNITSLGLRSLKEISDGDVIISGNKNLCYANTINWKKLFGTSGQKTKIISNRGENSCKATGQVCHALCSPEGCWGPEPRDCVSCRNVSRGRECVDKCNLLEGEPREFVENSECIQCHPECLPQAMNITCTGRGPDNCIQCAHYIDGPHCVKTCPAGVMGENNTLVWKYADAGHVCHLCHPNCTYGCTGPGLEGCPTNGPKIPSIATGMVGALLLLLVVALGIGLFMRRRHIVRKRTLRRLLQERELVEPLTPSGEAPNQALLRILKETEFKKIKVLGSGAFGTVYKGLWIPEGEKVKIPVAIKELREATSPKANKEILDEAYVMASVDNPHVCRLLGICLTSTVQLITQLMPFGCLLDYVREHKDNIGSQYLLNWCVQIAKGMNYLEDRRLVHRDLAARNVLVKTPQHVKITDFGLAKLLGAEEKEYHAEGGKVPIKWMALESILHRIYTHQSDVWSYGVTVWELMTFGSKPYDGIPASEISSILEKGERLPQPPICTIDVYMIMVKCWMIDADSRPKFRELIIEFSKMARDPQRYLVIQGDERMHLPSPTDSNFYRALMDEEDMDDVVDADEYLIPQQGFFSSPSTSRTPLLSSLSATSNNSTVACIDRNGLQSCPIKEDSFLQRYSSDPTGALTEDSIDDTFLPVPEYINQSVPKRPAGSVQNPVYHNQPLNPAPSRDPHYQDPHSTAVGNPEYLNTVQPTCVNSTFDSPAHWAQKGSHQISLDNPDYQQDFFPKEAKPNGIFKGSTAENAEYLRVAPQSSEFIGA

Structure (SMILES)	inhibition [1]	inhibition [3]	IC50 [5]	IC50 [6]	IC50 [7]	other results
C=CC(=O)Nc1cc(Nc2nccc(-c3cn(C)c4ccccc34)n2)c(OC)cc1N(C)CCN(C)C [OSIMERTINIB]	99.5%	97.3%	[…]	–	–	IC50 [2]: 129 nM; IC50 [4]: 3.4 nM
C=CC(=O)Nc1ccc(OC)c(Nc2ncc(Cl)c(N3CCc4sccc4C3)n2)c1	–	–	786 nM	90900 nM	6910 nM	–
C=CC(=O)Nc1cc(Nc2ncc(Cl)c(N3CCc4sccc4C3)n2)c(OC)cc1N1CCN(C)CC1	–	–	197 nM	> 50000 nM	1560 nM	Ratio IC50 [8]: > 13.6; IC50 [2]: 659 nM; IC50 [4]: 294 nM; IC50 [9]: > 4000 nM
COc1cc(NC(=O)CN2CCOCC2)ccc1Nc1nccc(N2CCc3sccc3C2)n1	13.9%	3.2%	–	–	–	–
C/C=C/C(=O)Nc1cc(Nc2ncc(Cl)c(N3CCc4sccc4C3)n2)c(OC)cc1N(C)CCN(C)C	–	–	133 nM	152 nM	251 nM	Ratio IC50 [8]: 2.9; IC50 [4]: 12.1 nM; IC50 [9]: 353 nM
CCN(CC)C/C=C/C(=O)Nc1ccc(OC)c(Nc2nccc(N3CCc4sccc4C3)n2)c1	77.5%	36.8%	–	–	–	–
COc1ccc(NC(=O)/C=C/CN(C)C)cc1Nc1nccc(N2CCc3sccc3C2)n1	80.1%	42.2%	–	–	–	–
C=CC(=O)Nc1cc(Nc2nccc(N3CCc4sccc4C3)n2)c(OC)cc1N(C)CCN(C)C	76.3%	54.1%	–	–	–	–
C=C(Cl)C(=O)Nc1cc(Nc2ncc(Cl)c(N3CCc4sccc4C3)n2)c(OC)cc1N(C)CCN(C)C	–	–	92 nM	13700 nM	654 nM	Activity [10]: Active; Ratio IC50 [8]: 26.7; IC50 [2]: 466 nM; inhibition [11]: Dose-Dependent Effect; IC50 [4]: 3.6 nM; IC50 [9]: 96.3 nM; Activity [12]: Dose-Dependent Effect
COc1cc(NC(=O)CN(C)CCN(C)C)ccc1Nc1nccc(N2CCc3sccc3C2)n1	69.7%	20.9%	–	–	–	–
C=CC(=O)Nc1cc(Nc2nccc(N3CCc4sccc4C3)n2)c(OC)cc1N1CCOCC1	50.6%	20.9%	–	–	–	–
COc1cc(NC(=O)CN2CCC(C)CC2)ccc1Nc1nccc(N2CCc3sccc3C2)n1	26.1%	4.5%	–	–	–	–
CCN(CC)CC(=O)Nc1ccc(Nc2nccc(N3CCc4sccc4C3)n2)c(OC)c1	20.3%	3.6%	–	–	–	–
CCN1CCN(CC(=O)Nc2ccc(Nc3nccc(N4CCc5sccc5C4)n3)c(OC)c2)CC1	36.6%	9.9%	–	–	–	–
C=CC(=O)Nc1cc(Nc2ncc(Cl)c(N3CCc4sccc4C3)n2)c(OC)cc1N(C)CCN(C)C	97%	85%	242 nM	5490 nM	166 nM	Ratio IC50 [8]: 7; IC50 [4]: 3.9 nM; IC50 [9]: 6.4 nM
C=CC(=O)Nc1cc(Nc2nccc(N3CCc4sccc4C3)n2)c(OC)cc1N1CCCC1	43.5%	14.9%	–	–	–	–
CCC(=O)Nc1cc(Nc2nccc(N3CCc4sccc4C3)n2)c(OC)cc1N(C)CCN(C)C	82.2%	67.7%	–	–	–	–
COc1cc(N(C)CCN(C)C)c(NC(=O)/C=C/C(C)C)cc1Nc1ncc(Cl)c(N2CCc3sccc3C2)n1	–	–	472 nM	21300 nM	4590 nM	–
COc1cc(NC(=O)CN(C)C)ccc1Nc1nccc(N2CCc3sccc3C2)n1	22.5%	5%	–	–	–	–
C=CC(=O)Nc1cc(Nc2nccc(N3CCc4sccc4C3)n2)c(OC)cc1N1CCN(CC)CC1	15.8%	5.4%	–	–	–	–
C=CC(=O)Nc1cc(Nc2nccc(N3CCc4sccc4C3)n2)c(OC)cc1N(CC)CC	42.6%	13.5%	–	–	–	–
COc1cc(N(C)CCN(C)C)c(NC(=O)C=C(C)C)cc1Nc1ncc(Cl)c(N2CCc3sccc3C2)n1	–	–	280 nM	> 50000 nM	5100 nM	IC50 [4]: 16.3 nM
C=CC(=O)Nc1cc(Nc2nccc(N3CCc4sccc4C3)n2)c(OC)cc1N(C)C	18.2%	2.3%	–	–	–	–
C=CC(=O)Nc1cc(Nc2nccc(N3CCc4sccc4C3)n2)c(OC)cc1N1CCN(C)CC1	56.5%	33.5%	–	–	–	–
CCC(=O)Nc1ccc(OC)c(Nc2ncc(Cl)c(N3CCc4sccc4C3)n2)c1	–	–	15200 nM	> 200000 nM	31300 nM	–
CCC(=O)Nc1cc(Nc2ncc(Cl)c(N3CCc4sccc4C3)n2)c(OC)cc1N(C)CCN(C)C	99.2%	97.9%	86 nM	2190 nM	460 nM	Activity [13]: 4.98%; Activity [14]: 11.42%; Activity [15]: 86.69%; Activity [10]: Active; Activity [16]: 7.49%; Activity [17]: 90.82%; Activity [18]: 0.51%; Activity [19]: 3.44%; Ratio IC50 [8]: 42.5; IC50 [2]: 360 nM; Activity [20]: 0.84%; Activity [21]: 15.91%; inhibition [11]: Dose-Dependent Effect; Activity [22]: 71.42%; IC50 [4]: 4 nM; Activity [23]: 1.25%; Activity [24]: 5.23%; IC50 [9]: 170 nM; Activity [12]: Dose-Dependent Effect
COc1cc(NC(=O)CN2CCN(CCO)CC2)ccc1Nc1nccc(N2CCc3sccc3C2)n1	45.2%	10.9%	–	–	–	–
COc1cc(NC(=O)CN2CCN(C)CC2)ccc1Nc1nccc(N2CCc3sccc3C2)n1	58.3%	16.3%	–	–	–	–
